Assay results from patent US20070191262A1, “Cancer Therapy and Prevention Based on Modulation of Complement activity” (University of Iowa Research Foundation, priority 2005, published 2007).
Like-named read-outs stand apart in the source and are kept apart here.

Key:
[1] = multiphasic clearance from plasma; cited from earlier work
[2] = cited from earlier work
[3] = patients with creatinine clearance >35 mL per minute; cited from earlier work
[4] = system: follicular lymphoma; test: Single agent rituximab therapy of follicular lymphoma, outcome by C1qA[276], CD32 and CD16 polymorphism; assay type: in vivo, human
Procedure: A polymorphism in the C1qA component of complement correlates with prolonged complete remission following rituximab therapy of follicular lymphoma. The non-coding polymorphism at C1qA[276] was examined in 90 patients with follicular lymphoma who were treated with rituximab (single agent) to assess whether a correlation exists between this genetic polymorphism of the complement pathway and clinical effectiveness of rituximab. The presence of an A versus a G allele at the C1qA[276] locus was determined using restriction fragment length polymorphism analysis by investigators blinded to the clinical outcome of the patients. The molecular and clinical data was then analyzed according to C1qA polymorphism, including measurement of radiographic response and duration of response, using methods similar to those used to evaluate the correlation between polymorphisms in CD16/CD32 genes and clinical outcome.
However, prolonged remission was noted among those subjects that achieved remission (either partial or complete response) for individuals who were carriers of the A allele at the C1qA[276] locus (AA or AG) compared to homozygous GG subjects. The strongest correlation was found among those subjects that achieved a complete remission to single agent rituximab. […] A allele was an independent factor for good prognosis, while FcγRIIIa 158 phenylalanine carrier and FcγRIIa 131 arginine carrier indicated poor survival. Thus, the relative risk was 0.2 for C1qA[276] AA/AG versus GG after controlling for CD32 and CD16 polymorphisms. The relative risks were 4.8 for CD32 HR versus HH and 6.16 for CD32 RR versus HH after controlling for complement and CD16 polymorphisms. The relative risks were 4.57 for CD16 VF against VV and 3.69 for CD16 FF versus VV after controlling for complement and CD32 polymorphisms.

[5] = system: Raji cells; test: Complement-mediated killing of Raji cells in the presence of rituximab and serum from genotyped donors; assay type: cell-based, human
Procedure: FIG. 1—Percentage of live Raji cells after 72 hours incubation in the presence of rituximab and serum from donors with known C1qA[276] genotype.
(§1) C1qA polymorphism correlates with the ability of complement to opsonize and kill target cells in the presence of therapeutic antibodies. The inventors collected and coded serum samples from 10 healthy donors previously genotyped for C1qA[276A/G] polymorphism. The sera were extensively analyzed for function of complement and ability to opsonize target cells by members of an outside collaborative research group blinded to the identity of the donors and the C1q genotype. The results from killing experiments are presented in summary in FIG. 1. The experiments were designed to determine the ability of the complement from human sera to lyse and thus limit the proliferation of Raji cells, a CD20 expressing B-cell lymphoma cell line, in the presence of rituximab, an anti-CD20 monoclonal with extensive application in clinical therapy of lymphoma. […] The inventors are currently in the process of collecting additional sera for testing. In a one-way ANOVA, p value is 0.086 at this point. Assuming future results will go with the trend observed, the ANOVA test will be in the 0.002 range if only 2 homozygous of each kind are added, and excluding the heterozygous. A better test for this type of data would be Dunn's multiple comparison test. […]

[6] = system: C3b deposition on B-cell surface; test: C3b opsonization of target cells in the presence of rituximab and donor serum (flow cytometry); assay type: cell-based, human; details: serum from homozygous A donors
Excerpt: FIG. 2—Level of C3b opsonization of B-cell surface in the presence of rituximab and serum from individuals with known C1qA[276] genotype.
as §1

Compound: CC[C@]1(O)C[C@H]2CN(CCc3c([nH]c4ccccc34)[C@@](C(=O)OC)(c3cc4c(cc3OC)N(C=O)[C@H]3[C@@](O)(C(=O)OC)[C@H](OC(C)=O)[C@]5(CC)C=CCN6CC[C@]43[C@@H]65)C2)C1 [Vincristine]
- terminal half-life [1]: about 24 hr

Compound: Bleomycin
- tissue concentration ([2]; hematopoietic tissue / bone marrow): low concentrations
- tissue concentration ([2]; mice, skin, lungs, kidneys, peritoneum, lymphatics): high concentrations
- serum or plasma terminal elimination half-life [3]: approximately 115 min

Compound: Rituximab: monoclonal antibody that targets CD20, which is found on more than 90% of non-Hodgkin's lymphomas
- difference in response rate based on C1qA polymorphisms ([4]; 90 follicular lymphoma patients, single agent): No statistically significant difference
- time to progression ([4]; C1qA[276] AA/AG subjects who achieved complete remission): 830 days
- relative risk ([4]; C1qA[276] AA/AG versus GG, controlling for CD32 and CD16 polymorphisms): 0.2
- time to progression ([4]; C1qA[276] GG subjects who achieved complete remission): 250 days
- relative risk ([4]; CD16 FF versus VV, controlling for complement and CD32 polymorphisms): 3.69
- relative risk ([4]; CD16 VF against VV, controlling for complement and CD32 polymorphisms): 4.57
- relative risk ([4]; CD32 HR versus HH, controlling for complement and CD16 polymorphisms): 4.8
- relative risk ([4]; CD32 RR versus HH, controlling for complement and CD16 polymorphisms): 6.16
- HR (time to progression) ([4]; GG versus AA/AG, complete remission group, 95% CI=2.1-96.9): 4.1
- average lysis of Raji cells ([5]; heterozygous sera): moderate efficiency
- ability of serum complement to lyse Raji cells ([5]; serum of homozygous C1qA[276A] donors versus homozygous G, 72 hours, p<0.04): significant decrease
- deposition of C3b molecules on the surface of target cells [6]: least efficient
